Values quoted from earlier work, collected in patent US7592468B2, “Production of Δ 9 tetrahydrocannabinol” (Resolution Chemicals Limited, priority 2003, dated 2009).

Details: greater than Δ8-THC

In the case of `CCCCCc1cc(O)c2c(c1)OC(C)(C)[C@@H]1CCC(C)=C[C@@H]21` [Δ9-THC, Delta 9 tetrahydrocannabinol], the “psychomimetic activity relative to Δ8-THC” value is given as 20 times.
